Data taken from ChEMBL document CHEMBL5370609, “Amidine-Based Cationic Conjugated Oligoelectrolytes with Antimicrobial Activity against Pseudomonas aeruginosa Biofilms” (J Med Chem, 2023).
≈ marks a conversion by molar mass, not a printed value. Calls of active or inactive are those of the source. The rule behind the calls is not given here.

How the values were obtained:
Pseudomonas aeruginosa [1] = test: Antibacterial activity against Pseudomonas aeruginosa PAO1 assessed as inhibition of bacterial growth incubated overnight by broth microdilution method; assay type: functional
Pseudomonas aeruginosa [2] = test: Bactericidal activity against Pseudomonas aeruginosa PAO1 assessed as reduction in viable bacteria at 4 times of MIC measured after 4 to 8 hrs by time-kill kinetics assay; assay type: functional, organism-based; conditions: time 4-8 hrs
Pseudomonas aeruginosa [3] = test: Induction of resistance development in Pseudomonas aeruginosa PAO1 assessed as fold increase in MIC measured after consecutive passages for 21 days by serial passaging assay relative to day 1 MIC; assay type: functional; conditions: time 21 day
Pseudomonas aeruginosa [4] = test: Induction of spontaneous resistance development in Pseudomonas aeruginosa PAO1 assessed as frequency of resistance at 2 to 4 times of MIC incubated for 48 hrs by FoR assay; assay type: functional
Pseudomonas aeruginosa [5] = test: Inhibition of biofilm formation in Pseudomonas aeruginosa PAO1 at below MIC incubated for 24 hrs by crystal violet staining based analysis; assay type: functional, organism-based
Pseudomonas aeruginosa [6] = test: Inhibition of biofilm formation in Pseudomonas aeruginosa PAO1 incubated for 24 hrs by crystal violet staining based analysis; assay type: functional
Pseudomonas aeruginosa [7] = test: Antibiofilm activity against preformed biofilm in Pseudomonas aeruginosa PAO1 assessed as bacteria killing at 1024 ug/ml incubated for 24 hrs by BacTiter Glo reagent based luminescence analysis; assay type: functional, organism-based; conditions: dose 1024.0 µg/ml
Staphylococcus aureus = test: Antibacterial activity against Staphylococcus aureus ATCC 29213 assessed as inhibition of bacterial growth incubated overnight by broth microdilution method; assay type: functional
Escherichia coli = test: Antibacterial activity against Escherichia coli ATCC 25922 assessed as inhibition of bacterial growth incubated for overnight by broth microdilution method; assay type: functional
Klebsiella pneumoniae = test: Antibacterial activity against Klebsiella pneumoniae ATCC 700603 assessed as inhibition of bacterial growth incubated overnight by broth microdilution method; assay type: functional
Pseudomonas aeruginosa [8] = test: Antibacterial activity against Pseudomonas aeruginosa ATCC 27853 assessed as inhibition of bacterial growth incubated overnight by broth microdilution method; assay type: functional
[9] = Cytotoxicity against human HepG2 cells assessed as reduction in cell viability incubated for 24 hrs by MTT assay; assay type: toxicity, cell-based
[10] = Selectivity index, IC50 for cytotoxicity against human HepG2 cells to MIC for antibacterial activity against Pseudomonas aeruginosa ATCC 27853 assessed as inhibition of bacterial growth; assay type: toxicity, cell-based; conditions: read-out: Selectivity Index
Pseudomonas aeruginosa [11] = test: Antibiofilm activity in Pseudomonas aeruginosa PAO1 assessed as eradication of preformed biofilm at 64 to 128 ug/ml incubated for 24 hr by BacTiter Glo reagent based luminescence analysis; assay type: functional, organism-based; conditions: dose 64-128 µg/ml

| Compound | MIC (Staphylococcus aureus) [mg/L] | MIC (Escherichia coli) [mg/L] | MIC (Klebsiella pneumoniae) [mg/L] | MIC (Pseudomonas aeruginosa [8]) [mg/L] | IC50 at 24 h [9] [mg/L] | selectivity ratio [10] | also measured |
| --- | --- | --- | --- | --- | --- | --- | --- |
| NC[C@H]1O[C@H](O[C@H]2[C@H](O)[C@@H](O[C@H]3O[C@H](CO)[C@@H](O)[C@H](N)[C@H]3O)[C@H](N)C[C@@H]2N)[C@H](N)C[C@@H]1O [TOBRAMYCIN] | – | – | – | – | – | – | MIC (Pseudomonas aeruginosa [1]): 0.5 mg/L (≈ 1.07 µM); Activity (Pseudomonas aeruginosa [2]): inactive; fold change (FC) (Pseudomonas aeruginosa [3]): 64; Activity (Pseudomonas aeruginosa [4]): Active; inhibition (Pseudomonas aeruginosa [5]): inactive; MBIC50 (Pseudomonas aeruginosa [6]): 0.5 µg/mL; MBIC90 (Pseudomonas aeruginosa [6]): 0.5 µg/mL; Activity (Pseudomonas aeruginosa [7]): Active |
| CC[C@H]1OC(=O)[C@H](C)[C@@H](O[C@H]2C[C@@](C)(OC)[C@@H](O)[C@H](C)O2)[C@H](C)[C@@H](O[C@@H]2O[C@H](C)C[C@H](N(C)C)[C@H]2O)[C@](C)(O)C[C@@H](C)C(=O)[C@H](C)[C@@H](O)[C@]1(C)O [ERYTHROMYCIN] | 0.25 (≈ 0.341 µM) | – | – | – | – | – | – |
| C/N=C(/C)NCCCOc1cc(/C=C/c2ccc(/C=C/c3cc(OCCCN/C(C)=N\C)cc(OCCCN/C(C)=N/C)c3)cc2)cc(OCCCN/C(C)=N/C)c1.CC(=O)O.CC(=O)O.CC(=O)O.CC(=O)O | 1 | 2 | 16 | 32 | > 1020 | > 32 | – |
| CC(=O)O.CC(=O)O.CC(=O)O.CC(=O)O.CN(CCCOc1cc(/C=C/c2ccc(/C=C/c3cc(OCCCN(C)C(=N)C4CC4)cc(OCCCN(C)C(=N)C4CC4)c3)cc2)cc(OCCCN(C)C(=N)C2CC2)c1)C(=N)C1CC1 | 1 | 1 | 8 | 8 | 1020 | 128 | – |
| CC(=O)O.CC(=O)O.CC(=O)O.CC(=O)O.CCC(=N)N(CCCOc1cc(/C=C/c2ccc(/C=C/c3cc(OCCCN(C(=N)CC)C4CC4)cc(OCCCN(C(=N)CC)C4CC4)c3)cc2)cc(OCCCN(C(=N)CC)C2CC2)c1)C1CC1 | 1 | 2 | 8 | 16 | 128 | 8 | – |
| POLYMYXIN B | – | – | – | – | – | – | MIC (Pseudomonas aeruginosa [1]): 2 mg/L; inhibition (Pseudomonas aeruginosa [5]): inactive; MBIC50 (Pseudomonas aeruginosa [6]): 2 µg/mL; MBIC90 (Pseudomonas aeruginosa [6]): 2 µg/mL; Activity (Pseudomonas aeruginosa [11]): 100% |
| COLISTIN | – | 2 | 2 | 2 | – | – | – |
